In patent US5929236A, “2-substituted morpholine and thiomorpholine derivatives as GABA-B antagonists” (Schering Corporation, priority 1995, dated 1999):

Key:
[1] = biological target: T1, GABAB receptors (Rattus norvegicus, UniProt Q9Z0U4); assay: GABAB Receptor Binding Assay ([3H]GABA, rat brain synaptosomes); conditions: 5 nM [3H]GABA, rat brain synaptosomes, 20° C., 30 min
T1 construct: Rat brain synaptosomes are used as a source of GABAB receptors; from tissue; host or cells: rat brain synaptosomes
Procedure: GABAB Receptor Binding Assay
The percentage inhibition of GABA binding to GABAB receptors is measured by tritiated GABA ([^3 H]GABA) determination of the degree of binding by scintillation counting. Rat brain synaptosomes are used as a source of GABAB receptors. An incubation medium is prepared from the following: 20 μg/mL of the compound to be tested as a solution in 1% DMSO/water; 5 nM [^3 H]GABA; 50 mM Tris buffer (pH 7.5); and 2.5 mM CaCl2. The medium also contains 40 μM isoguvacine to selectively block binding to GABAA receptors. The synaptosome (200 μg/mL) is added to the incubation medium and incubated for 30 minutes at 20° C. The incubation is terminated by filtration and counted to determine the percentage inhibition of [^3 H]-GABA binding. The results are reported as IC50 values for those compounds inhibiting [^3 H]-GABA binding by >50%.

[2] = biological target: prejunctional GABAB receptors (Cavia porcellus, UniProt A0A286X9P6); assay: In Vitro Assay (guinea pig trachea, reversal of baclofen inhibition of EFS-induced contractions); assay type: cell-based, guinea pig (male Hartley); conditions: 30 μmol/L baclofen
Procedure: Male Hartley guinea pigs (450-650 g) are sacrificed by stunning and the trachea removed proximal to the carina and cut into 5 mm segments. The segments are attached to isometric force displacement transducers (Model FT03: Grass Instruments) and suspended in 15 mL organ baths filled with low Ca^2+ (0.6 mmol/L) Tyrode's buffer solution (pH 7.4) supplemented with 5.6 mmol/L glucose, 30 μmol/L choline and 2 μmol/L indomethacin. The solution is bubbled with a mixture of 95% O2 +5% CO2 and maintained at 37° C. The tracheal segments are allowed to equilibrate for 90 minutes under a resting tension of 0.5 g.
Platinum electrodes are placed on either side of the trachea and electrical field stimulation (EFS) (20 V, 8 Hz, 0.5 ms pulse for 5 s) was generated each minute from an electrical stimulator (Model S-88: Grass Instruments) and delivered to the electrodes through a stimulus distributor (Buxco Electronics). The stimulation parameters are chosen as appropriate for producing cholinergic contractions of the trachea that are sensitive to the inhibitory effects of compounds acting at prejunctional GABAB receptors. Contractile responses were recorded on a polygraph (Harvard Apparatus). The compound to be tested is added to the bath 10 min. before addition of 30 μmol/L baclofen. The effect of baclofen treatment in the absence or in the presence of the compound to be tested is expressed as a percent inhibition of EFS-induced contractions.

[3] = test system: seizure in rats induced by GBL; assay: Prevention of seizure in rats induced by GBL; assay type: in vivo, rat; conditions: 100 mg/kg GBL (ip)
Procedure: (§1) Animal Models for Absence Seizures
(§2) A. Snead, Eur. J. Pharmacol., 213, 343-349 (1992), teaches a pharmacological model for testing the effectiveness of GABAB antagonists in preventing seizures induced by intra-peritoneal (ip) administration of either γ-butyrolactone (GBL) or pentylenetetrazole (PTZ) to rats. The animal is treated with the test compound, then monitored after being subjected to a dose of either GBL or PTZ sufficient to induce seizures.

[4] = test system: seizure in rats induced by PTZ; assay: Prevention of seizure in rats induced by PTZ; assay type: in vivo, rat; conditions: PTZ model
Procedure: as §1, §2

[5] = test system: seizure in lethargic (lh/lh) mice; assay: Prevention of seizure in lethargic (lh/lh) mice; assay type: in vivo
Source text: B. Hosford, et al., Science, 257, 398-401 (Jul. 17, 1992), teaches a pharmacological model for testing the effectiveness of GABAB antagonists as anticonvulsants for the treatment of absence seizures by administering the compound to be tested to lethargic (lh/lh) mice, a mutant strain with spontaneous seizures.

Sequence of prejunctional GABAB receptors (A0A286X9P6 30-844): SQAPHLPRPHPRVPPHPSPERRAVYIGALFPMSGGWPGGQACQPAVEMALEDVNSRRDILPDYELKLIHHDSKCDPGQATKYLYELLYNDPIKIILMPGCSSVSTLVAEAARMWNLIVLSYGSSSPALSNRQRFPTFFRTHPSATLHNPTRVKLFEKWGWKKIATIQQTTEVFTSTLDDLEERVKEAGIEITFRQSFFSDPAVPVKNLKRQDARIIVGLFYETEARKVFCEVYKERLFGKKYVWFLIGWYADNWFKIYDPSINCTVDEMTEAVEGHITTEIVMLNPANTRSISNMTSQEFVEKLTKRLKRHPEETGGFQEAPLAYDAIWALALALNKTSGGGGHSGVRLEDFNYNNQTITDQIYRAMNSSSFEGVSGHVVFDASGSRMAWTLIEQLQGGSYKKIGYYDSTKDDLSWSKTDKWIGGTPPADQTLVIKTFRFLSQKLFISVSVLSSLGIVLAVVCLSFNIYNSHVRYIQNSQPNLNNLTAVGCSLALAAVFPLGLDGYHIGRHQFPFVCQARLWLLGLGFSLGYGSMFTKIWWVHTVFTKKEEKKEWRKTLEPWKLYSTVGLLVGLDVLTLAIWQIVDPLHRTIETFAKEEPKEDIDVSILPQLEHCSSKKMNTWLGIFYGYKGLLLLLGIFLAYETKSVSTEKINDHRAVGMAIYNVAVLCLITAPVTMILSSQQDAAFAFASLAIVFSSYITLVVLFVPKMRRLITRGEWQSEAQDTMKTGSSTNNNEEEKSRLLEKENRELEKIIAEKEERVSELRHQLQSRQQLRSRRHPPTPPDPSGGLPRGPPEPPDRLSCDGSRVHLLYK
Sequence of prejunctional GABAB receptors (H0V741 1-820 partner): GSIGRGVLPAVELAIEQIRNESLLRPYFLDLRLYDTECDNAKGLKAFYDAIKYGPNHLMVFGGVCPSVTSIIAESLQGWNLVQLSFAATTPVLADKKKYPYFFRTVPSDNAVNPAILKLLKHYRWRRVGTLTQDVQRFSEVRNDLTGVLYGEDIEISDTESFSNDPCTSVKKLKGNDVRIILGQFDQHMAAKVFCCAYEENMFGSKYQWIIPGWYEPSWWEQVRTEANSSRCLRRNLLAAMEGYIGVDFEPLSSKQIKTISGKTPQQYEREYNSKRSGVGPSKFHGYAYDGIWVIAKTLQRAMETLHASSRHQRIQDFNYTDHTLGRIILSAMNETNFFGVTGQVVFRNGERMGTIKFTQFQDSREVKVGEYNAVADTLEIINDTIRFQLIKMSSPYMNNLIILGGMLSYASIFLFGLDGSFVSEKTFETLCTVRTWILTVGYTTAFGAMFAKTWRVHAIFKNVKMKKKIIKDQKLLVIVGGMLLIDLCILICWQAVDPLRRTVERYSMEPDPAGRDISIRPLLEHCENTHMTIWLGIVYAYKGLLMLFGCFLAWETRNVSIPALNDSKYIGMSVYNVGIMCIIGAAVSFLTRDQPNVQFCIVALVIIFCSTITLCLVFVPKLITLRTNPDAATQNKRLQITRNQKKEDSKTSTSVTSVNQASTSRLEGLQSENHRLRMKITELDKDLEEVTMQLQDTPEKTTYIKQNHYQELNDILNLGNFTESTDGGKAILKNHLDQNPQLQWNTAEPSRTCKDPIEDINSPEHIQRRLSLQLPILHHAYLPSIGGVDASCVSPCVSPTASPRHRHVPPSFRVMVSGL
T1 sequence (Q9Z0U4 17-960 limits assumed): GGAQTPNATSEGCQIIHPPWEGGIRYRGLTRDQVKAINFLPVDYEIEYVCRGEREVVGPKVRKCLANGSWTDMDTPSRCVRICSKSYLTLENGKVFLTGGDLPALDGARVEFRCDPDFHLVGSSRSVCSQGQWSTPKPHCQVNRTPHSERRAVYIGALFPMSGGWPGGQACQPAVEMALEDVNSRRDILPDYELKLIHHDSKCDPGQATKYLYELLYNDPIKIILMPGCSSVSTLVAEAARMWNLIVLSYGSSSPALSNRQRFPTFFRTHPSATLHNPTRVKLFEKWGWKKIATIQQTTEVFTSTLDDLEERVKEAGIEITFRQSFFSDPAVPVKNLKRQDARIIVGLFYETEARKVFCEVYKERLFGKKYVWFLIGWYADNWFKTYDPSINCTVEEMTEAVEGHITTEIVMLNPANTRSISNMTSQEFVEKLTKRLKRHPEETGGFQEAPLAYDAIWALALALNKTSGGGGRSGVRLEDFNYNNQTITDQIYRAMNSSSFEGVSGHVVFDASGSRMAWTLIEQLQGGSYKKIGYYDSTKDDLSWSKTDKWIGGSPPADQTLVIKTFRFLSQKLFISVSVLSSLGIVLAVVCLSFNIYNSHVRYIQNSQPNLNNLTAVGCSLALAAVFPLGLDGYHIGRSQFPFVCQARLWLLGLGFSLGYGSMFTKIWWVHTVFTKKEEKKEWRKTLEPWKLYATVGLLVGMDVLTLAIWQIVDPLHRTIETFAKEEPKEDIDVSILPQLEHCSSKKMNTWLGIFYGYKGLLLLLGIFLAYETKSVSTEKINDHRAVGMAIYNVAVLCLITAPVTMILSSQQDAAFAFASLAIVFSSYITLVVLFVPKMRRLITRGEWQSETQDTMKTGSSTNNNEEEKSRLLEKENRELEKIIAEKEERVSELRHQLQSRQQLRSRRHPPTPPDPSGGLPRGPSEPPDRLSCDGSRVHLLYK
T1 sequence (O88871 41-940 partner): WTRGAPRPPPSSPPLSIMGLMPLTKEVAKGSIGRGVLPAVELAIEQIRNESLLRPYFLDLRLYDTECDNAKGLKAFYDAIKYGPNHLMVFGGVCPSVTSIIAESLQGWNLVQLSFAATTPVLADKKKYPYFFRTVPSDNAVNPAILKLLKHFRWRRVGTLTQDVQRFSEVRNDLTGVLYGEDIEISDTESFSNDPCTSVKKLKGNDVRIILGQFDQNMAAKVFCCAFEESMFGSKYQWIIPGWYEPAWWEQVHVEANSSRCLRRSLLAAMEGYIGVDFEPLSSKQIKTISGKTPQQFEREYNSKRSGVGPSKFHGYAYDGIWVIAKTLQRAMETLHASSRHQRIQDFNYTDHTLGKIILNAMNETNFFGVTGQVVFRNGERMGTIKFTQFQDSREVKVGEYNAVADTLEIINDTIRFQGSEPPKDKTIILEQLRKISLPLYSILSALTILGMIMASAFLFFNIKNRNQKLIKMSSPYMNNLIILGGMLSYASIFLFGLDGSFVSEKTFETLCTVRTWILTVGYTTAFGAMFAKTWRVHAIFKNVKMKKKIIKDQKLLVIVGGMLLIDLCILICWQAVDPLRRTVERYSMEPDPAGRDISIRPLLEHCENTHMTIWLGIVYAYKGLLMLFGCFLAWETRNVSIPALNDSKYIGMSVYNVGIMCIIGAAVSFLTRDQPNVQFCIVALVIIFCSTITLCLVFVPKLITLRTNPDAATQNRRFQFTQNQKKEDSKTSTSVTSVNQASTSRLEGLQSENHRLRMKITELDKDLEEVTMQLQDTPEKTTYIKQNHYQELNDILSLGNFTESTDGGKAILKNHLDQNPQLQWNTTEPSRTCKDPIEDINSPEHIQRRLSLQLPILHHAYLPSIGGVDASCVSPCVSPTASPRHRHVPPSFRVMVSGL

IC50 [1]: 2 µM
inhibition at 30 µM ([2]; 30 μM): 90%
IC30 ([2]; guinea pig trachea): 1.1 µM
In Vitro % inhibition ([2]; 100 μM): 94%
SMILES: CC1(C)COC(CC(=O)O)CN1 (single isomer, unassigned) [Example 6A]
SWD duration ([3]; 0.75 mg/kg, 20 min): 970 s
SWD duration ([3]; 0.75 mg/kg, 40 min): 1150 s
SWD duration ([3]; 0.75 mg/kg, 60 min): 500 s
SWD duration ([3]; 0.75 mg/kg, 80 min): 280 s
SWD duration ([3]; 0.75 mg/kg, 100 min): 50 s
SWD duration ([3]; 0.75 mg/kg, 120 min): 0 s
SWD duration ([3]; 1.5 mg/kg, 20 min): 560 s
SWD duration ([3]; 1.5 mg/kg, 40 min): 540 s
SWD duration ([3]; 1.5 mg/kg, 60 min): 0 s
SWD duration ([3]; 1.5 mg/kg, 80 min): 0 s
SWD duration ([3]; 1.5 mg/kg, 100 min): 0 s
SWD duration ([3]; 1.5 mg/kg, 120 min): 0 s
SWD duration ([3]; 3.0 mg/kg, 20 min): 0 s
SWD duration ([3]; 3.0 mg/kg, 40 min): 0 s
SWD duration ([3]; 3.0 mg/kg, 60 min): 0 s
SWD duration ([3]; 3.0 mg/kg, 80 min): 0 s
SWD duration ([3]; 3.0 mg/kg, 100 min): 0 s
SWD duration ([3]; 3.0 mg/kg, 120 min): 0 s
SWD duration ([4]; 0.18 mg/kg, 20 min): 250 s
SWD duration ([4]; 0.18 mg/kg, 40 min): 235 s
SWD duration ([4]; 0.18 mg/kg, 60 min): 140 s
SWD duration ([4]; 0.18 mg/kg, 80 min): 60 s
SWD duration ([4]; 0.18 mg/kg, 100 min): 15 s
SWD duration ([4]; 0.18 mg/kg, 120 min): 0 s
SWD duration ([4]; 0.375 mg/kg, 20 min): 150 s
SWD duration ([4]; 0.375 mg/kg, 40 min): 140 s
SWD duration ([4]; 0.375 mg/kg, 60 min): 55 s
SWD duration ([4]; 0.375 mg/kg, 80 min): 25 s
SWD duration ([4]; 0.375 mg/kg, 100 min): 0 s
SWD duration ([4]; 0.375 mg/kg, 120 min): 0 s
SWD duration ([4]; 0.75 mg/kg, 20 min): 90 s
SWD duration ([4]; 0.75 mg/kg, 40 min): 70 s
SWD duration ([4]; 0.75 mg/kg, 60 min): 45 s
SWD duration ([4]; 0.75 mg/kg, 80 min): 0 s
SWD duration ([4]; 0.75 mg/kg, 100 min): 0 s
SWD duration ([4]; 0.75 mg/kg, 120 min): 0 s
SWD duration ([4]; 1.5 mg/kg, 20 min): 0 s
SWD duration ([4]; 1.5 mg/kg, 40 min): 0 s
SWD duration ([4]; 1.5 mg/kg, 60 min): 0 s
SWD duration ([4]; 1.5 mg/kg, 80 min): 0 s
SWD duration ([4]; 1.5 mg/kg, 100 min): 0 s
SWD duration ([4]; 1.5 mg/kg, 120 min): 0 s
Seizures (% vehicle) in 120 min. ([5]; 1.0 mg/kg ip): 85%
Seizures (% vehicle) in 120 min. ([5]; 3.0 mg/kg ip): 60%
Seizures (% vehicle) in 120 min. ([5]; 10 mg/kg ip): 15%
Seizures (% vehicle) in 120 min. ([5]; 30 mg/kg ip): 5%
